Test results reported in patent US20260378560A1, “APPROACHES TO DESIGNING AND PERFORMING COMPRESSED BIOLOGICAL EXPERIMENTS AND SYSTEMS FOR IMPLEMENTING THE SAME” (EXVIVO LABS INC., priority 2023, published 2026).
Like-named read-outs stand apart in the source and are kept apart here.

How the values were obtained:
MOLT-4 [1] = assay: Cell viability (CellTiter Glo), compressed perturbation pools with informed pool design, MAX-based deconvolution, MOLT-4;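 further: higher DRS means a larger drug effect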
Description: (§1) Total cell viability was measured for each sample using an ATP-based luminescence assay (i.e., CellTiter Glo). Each cancer drug was then screened at multiple concentrations ranging from one nM to ten μM in order to generate a dose-response curve and calculate a DRS for each cancer cell line.
(§2) Each cancer drug was cultured with target cells individually. At the end of the screen, samples were either analyzed individually or compressed into pools for analysis. The library was compressed alphabetically into ten cohorts, each of which contained seven cancer drugs present in three out of the seven pools, as shown in Table VII. Said another way, the screening platform 210 generated a “7 pick 3” compressed library by assigning the cancer drugs among different pools. […] The library was also compressed into ten cohorts with pools designed based on information known about each cancer drug, as shown in Table VIII. After cell viability measurement and DRS calculation, the DRS of each cancer drug in the samples generated based on the pools were deconvoluted and compared to the DRS for each cancer drug measured individually.
(§3) In parallel to the exemplary sample compression screen covered in Table VII, perturbations were compressed into pools and then screened. The pools were designed using drug class as a feature with two compression rules (or simply “rules”). The first rule required that drugs from the same class be separated into different cohorts (i.e., mutually exclusive groups of pools). […] A benefit of compressing perturbations is the ability to measure additive, antagonistic, and synergistic effects between drugs in the same pool. However, these effects can negatively impact deconvolution of individual drug effects. Therefore, combinations of drugs for which evidence of clinical toxicity exists can be assigned to different pools in accordance with an informed pooling operation. As new preclinical or clinical evidence of toxic combinations becomes available, the rules implemented by the screening platform 210—and more specifically, its algorithm for compressing members of a library—can be updated accordingly.
(§4) In MAX-based deconvolution, an assumption of neutrality between the compressed perturbations is made. In other words, the perturbation with the largest effect is assumed to be masking the effects, if any, of the other perturbations in the pool. For SUM- and MAX-based deconvolution, qualitative deconvolution is first performed to rank the perturbations in each pool based on size of expected effect. Qualitative deconvolution, as described above, ranks the perturbations in a pool from largest effect size to smallest effect size. The ranking is based on the overlap of each perturbation's unique subset of pools with the highest and lowest measured pools. The perturbation with the largest effect is expected to be present in the pools with the highest measured signal or corresponding metric (e.g., DRS), while the perturbation with the smallest effect is expected to be present in the pools with the lowest measured signal or corresponding metric (e.g., DRS).
(§5) For MAX-based deconvolution, the highest ranked perturbation in the rank order is first assigned an effect size based on the pool with the lowest measured signal or corresponding metric (e.g., DRS) that it is present in. Said another way, the screening platform 210 can identify the highest ranked perturbation in the rank order and then assign an effect size based on the measured signal or corresponding metric (e.g., DRS) of the “weakest” pool in which the highest ranked perturbation is included. The screening platform 210 can repeat this step for the next highest ranked perturbation, and so on until the measurements for each pool have been assigned to one of the perturbations. The effects for the remaining perturbations can be assigned a value of zero, since it is assumed that their effect is masked by the perturbation with the largest effect in each pool.

REH [2] = assay: Cell viability (CellTiter Glo), compressed perturbation pools with informed pool design, MAX-based deconvolution, REH;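 further: higher DRS means a larger drug effect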
Description: as §1, §2, §3, §4, §5

REH [3] = assay: Cell viability (CellTiter Glo), library of cancer drugs, individual or sample compression with randomized (alphabetical) pools, REH; format: cell-based
Description: as §1, §2
(§6) In SUM-based deconvolution, an assumption of additivity is used to quantify the individual effects of each perturbation on each target. Additivity implies that each perturbation effect on each target is positively contributing to the overall effect measured for that pool. This is an accurate assumption for certain experiments, such as when targets or samples are compressed. When targets are pooled—or when samples containing different targets are pooled—the effect of each perturbation on each individual target is diluted. In other words, each perturbation has an isolated effect on a target in culture, and the sum total of the isolated effects are measured when pooled. Therefore, SUM-based deconvolution breaks down the sum total measured for a pool and assigns estimated fractional effects to each compressed perturbation or target in the pool. The screening platform 210 used SUM-based deconvolution for all target and sample compression experiments described above.

MOLT-4 [4] = assay: Cell viability (CellTiter Glo), library of cancer drugs, individual or sample compression with randomized (alphabetical) pools, MOLT-4; format: cell-based
Description: as §1, §2, §6

[5] = MOLT-4, None (measured individually), informed pool design table
[6] = MOLT-4, Samples, 7 Pick 3 informed perturbation pools
[7] = REH, None (measured individually), informed pool design table
[8] = REH, Samples, 7 Pick 3 informed perturbation pools
[9] = REH, None (measured individually)
[10] = REH, Samples, 7 Pick 3 randomized (alphabetical) sample pools
[11] = MOLT-4, None (measured individually)
[12] = MOLT-4, Samples, 7 Pick 3 randomized (alphabetical) sample pools

For O=C(c1ccc(F)c(F)c1Nc1ccc(I)cc1F)N1CC(O)([C@@H]2CCCCN2)C1 [Cobimetinib], which DRS (MOLT-4 [1]; [5]) is on record?
The DRS was 1.60.

And the “DRS from MAX-based deconvolution” value (MOLT-4 [1]; [6])?
The value was 1.60.

And the DRS (REH [2]; [7])?
The DRS was 0.00.

What about the “DRS from MAX-based deconvolution” value (REH [2]; [8]) of the same compound?
Its value is 0.00.

And the DRS (REH [3]; [9])?
The DRS was 0.00.

And the DRS from deconvolution (REH [3]; [10])?
The DRS from deconvolution was 0.00.

What about the DRS (MOLT-4 [4]; [11]) of the same compound?
The DRS was 0.00.

And the DRS from deconvolution (MOLT-4 [4]; [12])?
Its DRS from deconvolution is 0.00.

With C[C@H](Nc1ncnc2nc[nH]c12)c1cc2cccc(Cl)c2c(=O)n1-c1ccccc1 [Duvelisib] as the compound, how does the DRS (MOLT-4 [1]; [5]) read?
Its DRS is 5.28.

And the “DRS from MAX-based deconvolution” value (MOLT-4 [1]; [6])?
Its value is 5.28.

And the DRS (REH [2]; [7])?
The DRS was 2.58.

What about the “DRS from MAX-based deconvolution” value (REH [2]; [8]) of the same compound?
Its value is 3.75.

And the DRS (REH [3]; [9])?
The DRS was 0.00.

And the DRS from deconvolution (REH [3]; [10])?
Its DRS from deconvolution is 0.00.

What about the DRS (MOLT-4 [4]; [11]) of the same compound?
Its DRS is 0.00.

What about the DRS from deconvolution (MOLT-4 [4]; [12]) of the same compound?
The DRS from deconvolution was 0.00.

With CC(C)(O)CNc1nc(Nc2ccnc(C(F)(F)F)c2)nc(-c2cccc(C(F)(F)F)n2)n1 [Enasidenib] as the compound, how does the DRS (MOLT-4 [1]) read?
Its DRS is 0.00.

And the “DRS from MAX-based deconvolution” value (MOLT-4 [1])?
Its value is 0.00.

And the DRS (REH [2])?
Its DRS is 0.00.

And the “DRS from MAX-based deconvolution” value (REH [2])?
The value was 0.00.

And the DRS (REH [3])?
The DRS was 0.00.

What about the DRS from deconvolution (REH [3]) of the same compound?
The DRS from deconvolution was 0.00.

And the DRS (MOLT-4 [4])?
Its DRS is 0.00.

And the DRS from deconvolution (MOLT-4 [4])?
The DRS from deconvolution was 0.00.

Which results are given for COC(=O)N[C@@H](C)CNc1nccc(-c2cn(C(C)C)nc2-c2cc(Cl)cc(NS(C)(=O)=O)c2F)n1 [Encorafenib]?
DRS (MOLT-4 [1]; [5]): 4.30; DRS from MAX-based deconvolution (MOLT-4 [1]; [6]): 0.00; DRS (REH [2]; [7]): 0.70; DRS from MAX-based deconvolution (REH [2]; [8]): 0.00; DRS (REH [3]; [9]): 1.84; DRS from deconvolution (REH [3]; [10]): 2.10; DRS (MOLT-4 [4]; [11]): 0.24; DRS from deconvolution (MOLT-4 [4]; [12]): 0.21

Which results are given for CN1CCN(c2ccc(C(=O)Nc3n[nH]c4ccc(Cc5cc(F)cc(F)c5)cc34)c(NC3CCOCC3)c2)CC1 [Entrectinib]?
DRS (MOLT-4 [1]; [5]): 18.70; DRS from MAX-based deconvolution (MOLT-4 [1]; [6]): 21.41; DRS (REH [2]; [7]): 16.20; DRS from MAX-based deconvolution (REH [2]; [8]): 18.94; DRS (REH [3]; [9]): 0.00; DRS from deconvolution (REH [3]; [10]): 0.00; DRS (MOLT-4 [4]; [11]): 0.00; DRS from deconvolution (MOLT-4 [4]; [12]): 0.00

Which results are given for CNC(=O)c1ccc(N2C(=S)N(c3ccc(C#N)c(C(F)(F)F)c3)C(=O)C2(C)C)cc1F [Enzalutamide]?
DRS (MOLT-4 [1]; [5]): 25.00; DRS from MAX-based deconvolution (MOLT-4 [1]; [6]): 28.24; DRS (REH [2]; [7]): 27.70; DRS from MAX-based deconvolution (REH [2]; [8]): 31.61; DRS (REH [3]; [9]): 0.00; DRS from deconvolution (REH [3]; [10]): 0.00; DRS (MOLT-4 [4]; [11]): 0.00; DRS from deconvolution (MOLT-4 [4]; [12]): 0.00

For C=C1C[C@@H]2[C@H](CC[C@]3(C)C(=O)CC[C@@H]23)[C@@]2(C)C=CC(=O)C=C12 [Exemestane], which DRS (MOLT-4 [1]; [5]) is on record?
The DRS was 1.04.

And the “DRS from MAX-based deconvolution” value (MOLT-4 [1]; [6])?
The value was 0.00.

What about the DRS (REH [2]; [7]) of the same compound?
Its DRS is 1.84.

What about the “DRS from MAX-based deconvolution” value (REH [2]; [8]) of the same compound?
Its value is 0.00.

What about the DRS (REH [3]; [9]) of the same compound?
Its DRS is 0.00.

What about the DRS from deconvolution (REH [3]; [10]) of the same compound?
Its DRS from deconvolution is 0.00.

And the DRS (MOLT-4 [4]; [11])?
The DRS was 0.00.

What about the DRS from deconvolution (MOLT-4 [4]; [12]) of the same compound?
Its DRS from deconvolution is 0.00.

With Cc1cnc(Nc2ccc(OCCN3CCCC3)cc2)nc1Nc1cccc(S(=O)(=O)NC(C)(C)C)c1 [Fedratinib] as the compound, how does the DRS (MOLT-4 [1]; [5]) read?
Its DRS is 2.70.

What about the “DRS from MAX-based deconvolution” value (MOLT-4 [1]; [6]) of the same compound?
The value was 3.88.

What about the DRS (REH [2]; [7]) of the same compound?
The DRS was 8.20.

And the “DRS from MAX-based deconvolution” value (REH [2]; [8])?
Its value is 9.03.

What about the DRS (REH [3]; [9]) of the same compound?
Its DRS is 4.94.

And the DRS from deconvolution (REH [3]; [10])?
Its DRS from deconvolution is 5.00.

What about the DRS (MOLT-4 [4]; [11]) of the same compound?
The DRS was 4.84.

What about the DRS from deconvolution (MOLT-4 [4]; [12]) of the same compound?
The DRS from deconvolution was 4.67.

Which DRS (MOLT-4 [1]; [5]) does the source give for C[C@]12CC[C@@H]3c4ccc(O)cc4C[C@@H](CCCCCCCCC[S+]([O-])CCCC(F)(F)C(F)(F)F)[C@H]3[C@@H]1CC[C@@H]2O (some centres unmarked) [Fulvestrant] here?
Its DRS is 0.00.

And the “DRS from MAX-based deconvolution” value (MOLT-4 [1]; [6])?
Its value is 0.00.

And the DRS (REH [2]; [7])?
The DRS was 0.00.

And the “DRS from MAX-based deconvolution” value (REH [2]; [8])?
The value was 0.00.

And the DRS (REH [3]; [9])?
Its DRS is 0.21.

And the DRS from deconvolution (REH [3]; [10])?
Its DRS from deconvolution is 0.00.

And the DRS (MOLT-4 [4]; [11])?
Its DRS is 0.01.

And the DRS from deconvolution (MOLT-4 [4]; [12])?
Its DRS from deconvolution is 0.00.

Which DRS (MOLT-4 [1]; [5]) does the source give for CCc1nc(C(N)=O)c(Nc2ccc(N3CCC(N4CCN(C)CC4)CC3)c(OC)c2)nc1NC1CCOCC1 [Gilteritinib] here?
The DRS was 0.00.

And the “DRS from MAX-based deconvolution” value (MOLT-4 [1]; [6])?
Its value is 0.00.

What about the DRS (REH [2]; [7]) of the same compound?
Its DRS is 0.20.

What about the “DRS from MAX-based deconvolution” value (REH [2]; [8]) of the same compound?
Its value is 0.00.

And the DRS (REH [3]; [9])?
The DRS was 0.00.

What about the DRS from deconvolution (REH [3]; [10]) of the same compound?
Its DRS from deconvolution is 0.00.

What about the DRS (MOLT-4 [4]; [11]) of the same compound?
The DRS was 0.00.

What about the DRS from deconvolution (MOLT-4 [4]; [12]) of the same compound?
Its DRS from deconvolution is 0.00.
